Test results reported in PMC5129982, “Screen-identified selective inhibitor of lysine demethylase 5A blocks cancer cell growth and drug resistance” (Oncotarget, 2016).
pIC50: −log10 of the molar value. Where two headings read alike, the source gives them in different places.

How the values were obtained:
FLAG-KDM5A = target: T1, FLAG-KDM5A (Homo sapiens, UniProt P29375); assay: AlphaScreen screen of 8,861 compounds for KDM5A inhibitors; format: biochemical; details: 20 μM compound, threshold ~30% inhibition
T1 construct: Sf21 insect cells were infected with baculovirus to express full-length FLAG-KDM5A; made in house; host or cells: Sf21 insect cells (baculovirus)
T1 sequence (P29375 whole entry): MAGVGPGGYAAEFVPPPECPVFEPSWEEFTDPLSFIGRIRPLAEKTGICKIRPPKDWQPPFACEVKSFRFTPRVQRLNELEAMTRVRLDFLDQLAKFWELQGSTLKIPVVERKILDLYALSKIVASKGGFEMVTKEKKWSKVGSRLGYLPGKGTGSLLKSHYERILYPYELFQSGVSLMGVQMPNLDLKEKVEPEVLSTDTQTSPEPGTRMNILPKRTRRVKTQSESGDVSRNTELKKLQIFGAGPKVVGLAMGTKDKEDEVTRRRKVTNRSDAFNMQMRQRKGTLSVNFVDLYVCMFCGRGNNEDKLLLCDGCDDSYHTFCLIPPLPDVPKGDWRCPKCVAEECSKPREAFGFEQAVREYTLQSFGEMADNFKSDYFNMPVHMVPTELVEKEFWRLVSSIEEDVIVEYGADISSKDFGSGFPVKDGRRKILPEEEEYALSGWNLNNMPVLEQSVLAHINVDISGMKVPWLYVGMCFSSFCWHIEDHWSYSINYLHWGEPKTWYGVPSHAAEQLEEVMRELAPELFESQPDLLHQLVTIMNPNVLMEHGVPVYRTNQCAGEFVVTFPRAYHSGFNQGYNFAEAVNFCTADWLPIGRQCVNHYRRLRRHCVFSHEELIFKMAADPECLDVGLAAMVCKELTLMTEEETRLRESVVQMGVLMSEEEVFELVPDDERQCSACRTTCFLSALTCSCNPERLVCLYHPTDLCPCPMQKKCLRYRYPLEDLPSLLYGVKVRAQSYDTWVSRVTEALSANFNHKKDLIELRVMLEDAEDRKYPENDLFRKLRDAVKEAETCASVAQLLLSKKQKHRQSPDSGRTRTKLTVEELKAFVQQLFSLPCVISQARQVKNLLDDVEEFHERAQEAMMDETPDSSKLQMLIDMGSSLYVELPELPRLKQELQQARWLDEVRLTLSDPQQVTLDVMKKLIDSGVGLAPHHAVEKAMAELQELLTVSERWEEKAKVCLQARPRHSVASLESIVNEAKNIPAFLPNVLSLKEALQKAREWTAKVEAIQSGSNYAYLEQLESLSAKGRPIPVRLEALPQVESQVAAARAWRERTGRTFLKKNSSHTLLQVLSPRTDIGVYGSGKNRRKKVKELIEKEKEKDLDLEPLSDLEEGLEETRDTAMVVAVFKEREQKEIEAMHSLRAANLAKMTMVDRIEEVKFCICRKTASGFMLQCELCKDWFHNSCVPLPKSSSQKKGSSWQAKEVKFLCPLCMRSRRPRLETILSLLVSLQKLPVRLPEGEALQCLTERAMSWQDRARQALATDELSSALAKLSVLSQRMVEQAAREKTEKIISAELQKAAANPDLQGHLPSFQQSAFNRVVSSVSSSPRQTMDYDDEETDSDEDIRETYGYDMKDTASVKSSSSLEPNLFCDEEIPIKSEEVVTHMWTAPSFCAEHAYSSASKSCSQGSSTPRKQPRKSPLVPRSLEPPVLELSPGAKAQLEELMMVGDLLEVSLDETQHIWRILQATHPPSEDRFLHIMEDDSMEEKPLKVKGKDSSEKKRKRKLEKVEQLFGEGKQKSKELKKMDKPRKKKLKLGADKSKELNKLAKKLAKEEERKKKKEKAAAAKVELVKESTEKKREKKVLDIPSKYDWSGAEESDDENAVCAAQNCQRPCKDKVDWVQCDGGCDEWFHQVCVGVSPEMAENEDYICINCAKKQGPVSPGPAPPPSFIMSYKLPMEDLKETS
From the text: The screen (see schematic in Figure 2A) included 8,861 compounds from selected small molecule libraries, including drugs approved for use in the clinic and diverse collections of compounds representing broad pharmacophore diversity and bioavailability. […] An inhibition threshold of three standard deviations (about 30% inhibition) identified 257 compounds. A counter-screen was used to eliminate any compounds that interfered with the assay itself by detecting the luminescent signal in the presence of the compound and positive control H3K4me2 peptide. The counter-screen validated 170 compounds. We chose 48 compounds from this list for dose-response analysis, including 42 of the top 44 compounds with the highest potency at 20 μM and 6 compounds with drug-like structures.
8,861 compounds from the ChemBridge MW-Set, ChemBridge DIVERSet, MicroSource Gen-Plus, MicroSource Pure Natural Products, NIH Clinical Collection, and Enzo Epigenetics libraries were screened for inhibition of FLAG-KDM5A demethylase activity. Compounds were dissolved in DMSO and added at 20 μM to 384-well white plates (Corning 3574) containing 64 nM bio-H3K4me3 peptide in demethylase buffer prior to addition of 13 nM FLAG-KDM5A. Hits were selected at a threshold of three standard deviations (~30% inhibition). A counter-screen was performed with the hits to eliminate any non-specific compounds. For this, 20 μM compounds were added to 64 nM bio-H3K4me2 peptide in demethylase buffer with no enzyme. Any hits that interfered with the positive signal detection were eliminated. Dose-response curves were performed on selected hits using 0.1–11 μM of compound. Further validation of top hits was performed using 5 μM of each compound or a dose-response curve using 0.05–50 μM of the compound.

full-length FLAG-KDM5A = target: T2, full-length FLAG-KDM5A (Homo sapiens, UniProt P29375); assay: AlphaScreen KDM5A demethylation assay; format: biochemical; details: for Km: cofactor of KDM5A demethylation, 24 nM FLAG-KDM5A, read-out: average apparent Km
T2 construct: Sf21 insect cells were infected with baculovirus to express full-length FLAG-KDM5A; made in house; host or cells: Sf21 insect cells (baculovirus)
T2 sequence (P29375 whole entry): as above
From the text: AlphaScreen technology (PerkinElmer) was utilized to perform a screen for small molecule inhibitors of KDM5A. The assay was comprised of two steps, a demethylation reaction followed by detection of the product. A biotinylated H3K4me3 peptide was used as substrate in the demethylation reaction with KDM5A in the presence or absence of small molecule inhibitors. The presence of peptide product (H3K4me1/2) was detected using a product-specific antibody and beads. For this, acceptor beads coated in protein A bound to the antibody, which recognized the peptide product. Donor beads coated in streptavidin bound biotin on the peptide substrate. If the demethylation reaction occurred, the beads were in very close proximity and laser excitation of the donor beads at 680nm caused a transfer of energy in the form of reactive singlet oxygen, resulting in emission by the acceptor beads between 520–620 nm ([30, 31], Figure 1A). The luminescent signal detected was a proxy for the amount of demethylation that occurred.
Reactions were carried out for 1 hour, or were stopped by addition of 30 mM EDTA every 5 minutes for determining enzyme kinetics. Km values were calculated using the Michaelis-Menten non-linear regression analysis on GraphPad Prism 6.0 software. The concentration of DMSO in demethylation reactions was 0.05%. For reactions with catalase, catalase (Sigma C30) or an equal volume of dilution buffer was added to the peptide-containing buffer before addition of the demethylase. The final concentration of catalase in the reactions was 0.01 mg/ml.
(§1) The AlphaScreen general IgG (protein A) detection kit from PerkinElmer Life Sciences was used as described previously. The luminescence emission was recorded at 570 nm using the AlphaScreen optic module on a Pherastar (BMG Labtech) or Envision (PerkinElmer Life Sciences) microplate reader.
IC50 values were calculated by log transformation and non-linear regression log(inhibitor) versus response(three parameters) using Graphpad Prism 6.0 software.

FLAG-KDM5B = target: T3, FLAG-KDM5B (Homo sapiens, UniProt Q9UGL1); assay: AlphaScreen KDM5B demethylation assay; format: biochemical
T3 construct: Full-length FLAG-KDM5B, FLAG-KDM5C, and His-FLAG-KDM6A production was detailed previously; FLAG (N); made in house
T3 sequence (Q9UGL1 whole entry): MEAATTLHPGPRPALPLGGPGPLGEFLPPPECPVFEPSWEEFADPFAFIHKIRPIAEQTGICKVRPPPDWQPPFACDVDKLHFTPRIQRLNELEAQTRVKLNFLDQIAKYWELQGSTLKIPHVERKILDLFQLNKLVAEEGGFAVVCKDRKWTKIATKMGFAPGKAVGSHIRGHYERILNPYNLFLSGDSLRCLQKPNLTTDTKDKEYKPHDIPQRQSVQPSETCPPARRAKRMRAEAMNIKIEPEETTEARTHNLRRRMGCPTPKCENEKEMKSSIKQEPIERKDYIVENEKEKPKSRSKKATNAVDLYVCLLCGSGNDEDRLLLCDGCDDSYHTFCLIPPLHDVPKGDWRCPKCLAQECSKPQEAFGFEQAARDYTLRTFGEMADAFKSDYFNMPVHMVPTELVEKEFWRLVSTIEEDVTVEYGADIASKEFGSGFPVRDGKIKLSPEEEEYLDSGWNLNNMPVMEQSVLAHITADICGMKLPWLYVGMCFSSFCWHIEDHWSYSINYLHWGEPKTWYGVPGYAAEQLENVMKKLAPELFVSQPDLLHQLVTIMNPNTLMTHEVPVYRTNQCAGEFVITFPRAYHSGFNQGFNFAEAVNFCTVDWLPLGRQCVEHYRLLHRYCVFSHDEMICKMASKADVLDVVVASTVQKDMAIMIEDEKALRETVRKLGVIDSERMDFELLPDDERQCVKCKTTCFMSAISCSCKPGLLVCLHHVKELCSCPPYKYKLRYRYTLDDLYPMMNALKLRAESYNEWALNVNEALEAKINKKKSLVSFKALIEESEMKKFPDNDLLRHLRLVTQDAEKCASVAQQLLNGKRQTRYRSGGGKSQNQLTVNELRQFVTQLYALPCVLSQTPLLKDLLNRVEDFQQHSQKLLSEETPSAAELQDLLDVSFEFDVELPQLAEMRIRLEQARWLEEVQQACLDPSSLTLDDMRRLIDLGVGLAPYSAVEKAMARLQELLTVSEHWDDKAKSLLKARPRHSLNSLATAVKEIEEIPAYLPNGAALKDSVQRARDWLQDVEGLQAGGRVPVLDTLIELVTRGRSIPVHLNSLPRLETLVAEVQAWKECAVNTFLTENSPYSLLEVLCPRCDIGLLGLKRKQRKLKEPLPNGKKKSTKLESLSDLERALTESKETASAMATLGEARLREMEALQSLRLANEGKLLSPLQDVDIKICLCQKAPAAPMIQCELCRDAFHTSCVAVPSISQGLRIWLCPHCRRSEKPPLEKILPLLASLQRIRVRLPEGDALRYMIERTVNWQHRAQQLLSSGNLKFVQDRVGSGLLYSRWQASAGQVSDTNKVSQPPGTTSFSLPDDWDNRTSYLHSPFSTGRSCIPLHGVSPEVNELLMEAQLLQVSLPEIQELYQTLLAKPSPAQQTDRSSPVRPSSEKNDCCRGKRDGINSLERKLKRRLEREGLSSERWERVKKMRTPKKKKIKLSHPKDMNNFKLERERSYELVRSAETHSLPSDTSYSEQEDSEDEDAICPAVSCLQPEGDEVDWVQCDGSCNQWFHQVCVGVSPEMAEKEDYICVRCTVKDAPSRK
Protocol: (§2) Histone demethylase assays were performed as described previously, with the exception of all enzyme reactions containing 125 μM α-KG. Enzymes were used at the following approximate concentrations in validation experiments, chosen based on their activity in AlphaScreen assays: 19 nM FLAG-KDM5A, 15 nM FLAG-KDM5B, 6 nM FLAG-KDM5C, 29 nM His-FLAG-KDM6A, and 16 nM FLAG-KDM6B. 24 nM FLAG-KDM5A was used for Km determination experiments. Reactions were carried out for 1 hour, or were stopped by addition of 30 mM EDTA every 5 minutes for determining enzyme kinetics. Km values were calculated using the Michaelis-Menten non-linear regression analysis on GraphPad Prism 6.0 software. The concentration of DMSO in demethylation reactions was 0.05%. For reactions with catalase, catalase (Sigma C30) or an equal volume of dilution buffer was added to the peptide-containing buffer before addition of the demethylase. The final concentration of catalase in the reactions was 0.01 mg/ml.
as §1

FLAG-KDM5C = target: T4, FLAG-KDM5C (Homo sapiens, UniProt P41229); assay: AlphaScreen KDM5C demethylation assay; format: biochemical
T4 construct: Full-length FLAG-KDM5B, FLAG-KDM5C, and His-FLAG-KDM6A production was detailed previously; FLAG (N); made in house
T4 sequence (P41229 whole entry): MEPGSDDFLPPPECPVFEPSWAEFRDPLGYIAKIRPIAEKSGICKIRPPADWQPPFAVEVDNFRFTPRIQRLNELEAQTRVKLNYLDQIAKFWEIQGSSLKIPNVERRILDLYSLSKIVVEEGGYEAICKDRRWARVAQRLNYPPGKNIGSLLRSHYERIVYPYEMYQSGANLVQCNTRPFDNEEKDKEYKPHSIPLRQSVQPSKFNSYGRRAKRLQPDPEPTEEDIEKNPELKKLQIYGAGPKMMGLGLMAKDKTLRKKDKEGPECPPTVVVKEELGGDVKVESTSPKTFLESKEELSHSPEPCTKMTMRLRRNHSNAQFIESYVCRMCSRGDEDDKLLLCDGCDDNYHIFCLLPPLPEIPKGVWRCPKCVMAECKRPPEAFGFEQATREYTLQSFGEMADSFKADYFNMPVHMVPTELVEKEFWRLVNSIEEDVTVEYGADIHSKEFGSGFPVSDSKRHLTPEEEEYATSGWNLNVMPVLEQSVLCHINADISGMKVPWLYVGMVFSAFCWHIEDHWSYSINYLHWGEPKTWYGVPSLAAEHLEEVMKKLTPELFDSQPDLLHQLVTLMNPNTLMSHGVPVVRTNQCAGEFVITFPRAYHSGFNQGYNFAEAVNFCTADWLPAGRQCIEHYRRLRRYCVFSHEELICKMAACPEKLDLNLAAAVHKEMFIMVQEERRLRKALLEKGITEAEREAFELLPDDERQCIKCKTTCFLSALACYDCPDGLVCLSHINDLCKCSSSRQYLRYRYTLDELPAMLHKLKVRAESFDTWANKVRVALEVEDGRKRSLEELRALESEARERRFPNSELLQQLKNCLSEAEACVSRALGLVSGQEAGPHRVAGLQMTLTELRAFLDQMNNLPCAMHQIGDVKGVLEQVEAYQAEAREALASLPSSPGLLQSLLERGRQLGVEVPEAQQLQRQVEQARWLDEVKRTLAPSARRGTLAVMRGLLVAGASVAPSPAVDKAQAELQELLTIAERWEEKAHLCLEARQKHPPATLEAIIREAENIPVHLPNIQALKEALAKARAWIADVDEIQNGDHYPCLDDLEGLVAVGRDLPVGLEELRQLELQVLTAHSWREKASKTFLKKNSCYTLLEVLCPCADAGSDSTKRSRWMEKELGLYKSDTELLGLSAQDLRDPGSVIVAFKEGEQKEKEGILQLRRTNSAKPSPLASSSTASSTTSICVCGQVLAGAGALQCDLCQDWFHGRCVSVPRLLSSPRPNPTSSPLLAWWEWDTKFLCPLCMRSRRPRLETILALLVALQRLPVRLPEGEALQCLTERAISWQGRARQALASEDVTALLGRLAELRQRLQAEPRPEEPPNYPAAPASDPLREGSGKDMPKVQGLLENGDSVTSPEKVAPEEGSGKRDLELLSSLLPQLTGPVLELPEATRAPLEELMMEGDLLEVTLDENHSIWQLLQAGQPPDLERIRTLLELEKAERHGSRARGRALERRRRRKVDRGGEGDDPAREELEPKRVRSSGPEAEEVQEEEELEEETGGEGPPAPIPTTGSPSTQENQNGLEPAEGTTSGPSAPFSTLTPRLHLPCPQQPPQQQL
Protocol: as §2, §1

His-FLAG-KDM6A (UTX) = target: T5, His-FLAG-KDM6A (UTX) (Homo sapiens, UniProt O15550); assay: AlphaScreen KDM6A demethylation assay; format: biochemical
T5 construct: Full-length FLAG-KDM5B, FLAG-KDM5C, and His-FLAG-KDM6A production was detailed previously; His (N); FLAG (N); made in house
Protocol: as §2, §1

[1] = target: T6, FLAG-KDM6B (1043-1682) (JMJD3) (Homo sapiens, UniProt O15054); assay: AlphaScreen KDM6B demethylation assay; format: biochemical
T6 construct: FLAG-KDM6B (1043-1682) was purchased from BPS Bioscience (50115); FLAG (N); purchased BPS Bioscience 50115
Protocol: as §2, §1

[2] = system: H3K4 methylation in HeLa cells; assay: Western blot of global H3K4 methylation, HeLa; format: cell-based, human; details: HeLa, 48 hr
Protocol: (§3) Cells were lysed as described previously. Histones were separated by centrifugation, resuspended in Laemmeli buffer, and sonicated. Protein concentration of cell lysates was measured by Bradford assay. Samples in Laemmeli buffer were boiled 10 minutes at 95°C and loaded onto 7% (whole cell lysates) or 18% (histones) SDS-PAGE gels. Membranes were blocked in 4% non-fat milk in Tris-buffered saline with 0.05% Tween (TBS-T) and incubated with primary antibodies in the same buffer or 5% bovine serum albumin in TBS-T overnight at 4°C. Membranes were incubated with secondary anti-rabbit or anti-mouse antibodies for one hour at room temperature. Blots were visualized by Thermo Scientific Pierce ECL Western Blotting Substrate (32106) or EMD Millipore Immobilon Western Chemiluminescent HRP Substrate (WBKLS0100) on film. Signal was quantified using ImageJ software.

[3] = system: H3K4 methylation in MCF7 cells; assay: Western blot of global H3K4 methylation, MCF7; format: cell-based, human; details: 48 hr
Protocol: as §3

[4] = target: FLAG-tagged full-length KDM5A (lysine demethylase 5A) (UniProt P29375)
FLAG-tagged full-length KDM5A (lysine demethylase 5A), sequence (P29375 whole entry): as the sequence (P29375 whole entry) above

O=C(O)c1ccnc(C(=O)O)c1 [2,4-PDCA, 2,4-pyridinedicarboxylic acid]
outcome in the KDM5A inhibitor screen (FLAG-KDM5A): active hits

[Fe+2] [Fe(II)]
Km (full-length FLAG-KDM5A): ~3 µM

[Cl-].[Na+] [NaCl, sodium chloride]
concentration above which FLAG-KDM5A showed little activity (full-length FLAG-KDM5A; salt titration in the demethylation reaction): more than 50 mM

Cc1ccc(-n2sc3ccccc3c2=O)cc1 [PBIT, 2-4(4-methylphenyl)-1,2-benzisothiazol-3(2H)-one]
outcome in the KDM5A inhibitor screen (FLAG-KDM5A): active hits

C=CCn1c(S)nnc1CNC(=O)c1cccc(C)c1 [YUKA2, N-[(4-allyl-5-mercapto-4H-1,2,4-triazol-3-yl)methyl]-3-methylbenzamide]
mode of inhibition with respect to Fe(II) (full-length FLAG-KDM5A): uncompetitive with respect to Fe(II) | change of IC50 over a 16-fold range of α-KG concentrations (full-length FLAG-KDM5A; 150 nM H3K4me3 peptide, 50 μM Fe(II)): did not change significantly | enzyme inhibition at low Fe(II) (full-length FLAG-KDM5A; 5 μM Fe(II)): too weak to generate robust IC50 curves | effect of catalase on inhibitory potency against KDM5A (full-length FLAG-KDM5A; 0.01 mg/ml catalase): did not affect | pIC50 (full-length FLAG-KDM5A; AlphaScreen, 1 hour reaction, 0.05–50 μM compound): 5.88 | pIC50 (FLAG-KDM5B; AlphaScreen): < 4.30 | activity against KDM5B (FLAG-KDM5B; at 50 μM): no activity | fold less active against KDM5C (than KDM5A) (FLAG-KDM5C): ~5 fold | pIC50 (FLAG-KDM5C; AlphaScreen): 5.18 | pIC50 (His-FLAG-KDM6A (UTX)): < 4.30 | pIC50 [1]: < 4.30 | H3K4me3 Fold (H3K4me3/Total H3, normalized to DMSO) ([2]; 50 μM): 1.6 | H3K4me3 Fold (H3K4me3/Total H3, normalized to DMSO) ([2]; 100 μM): 1.7 | H3K4me3 Fold (H3K4me3/Total H3, normalized to DMSO) ([3]; MCF7, 50 μM): 0.9 | H3K4me3 Fold (H3K4me3/Total H3, normalized to DMSO) ([3]; MCF7, 100 μM): 0.8

[Cl-].[Cl-].[Zn+2] [ZnCl2, Zinc chloride]
concentration above which FLAG-KDM5A was sensitive (full-length FLAG-KDM5A; titration in the demethylation reaction): above 2 μM

O=C(O)/C=C/c1ccc(O)c(O)c1 [caffeic acid]
outcome in the KDM5A inhibitor screen (FLAG-KDM5A): active hits

C[C@@](Cc1ccc(O)c(O)c1)(NN)C(=O)O [carbidopa]
outcome in the KDM5A inhibitor screen (FLAG-KDM5A): active hits

N[C@@H](Cc1ccc(O)c(O)c1)C(=O)O [levodopa]
outcome in the KDM5A inhibitor screen (FLAG-KDM5A): active hits

C[C@](N)(Cc1ccc(O)c(O)c1)C(=O)O [methyldopa]
outcome in the KDM5A inhibitor screen (FLAG-KDM5A): active hits

O=C(O)CCC(=O)C(=O)O [α-ketoglutarate]
Km (full-length FLAG-KDM5A; listed as α-KG): ~7 µM

biotinylated H3K4me3 peptide
average apparent Km of the H3K4me3 peptide: rate of the demethylation reaction over increasing peptide concentrations, product detected by AlphaScreen (24 nM FLAG-KDM5A) [4]: 0.028 µM
